Data: patent US7173063B1, “Topoisomerase poisons for the treatment of proliferative disorders” (Fred Hutchinson Cancer Research Center, priority 2000, dated 2007)

Columns and labels:
yeast Topo I = target: T1, yeast Topo I (Saccharomyces cerevisiae, UniProt P04786); test: Toxicity in yeast overexpressing yeast Topo I (yTOP1) or ytop1-vac mutant; format: cell-based; details: GAL promoter, galactose-induced, vs vector
T1 construct: expressed in transfected cells; host or cells: S. cerevisiae BY4705 (S288C background), plasmid pyTOP1 under the GAL promoter, vector pRS416
T1 sequence (P04786 1-769): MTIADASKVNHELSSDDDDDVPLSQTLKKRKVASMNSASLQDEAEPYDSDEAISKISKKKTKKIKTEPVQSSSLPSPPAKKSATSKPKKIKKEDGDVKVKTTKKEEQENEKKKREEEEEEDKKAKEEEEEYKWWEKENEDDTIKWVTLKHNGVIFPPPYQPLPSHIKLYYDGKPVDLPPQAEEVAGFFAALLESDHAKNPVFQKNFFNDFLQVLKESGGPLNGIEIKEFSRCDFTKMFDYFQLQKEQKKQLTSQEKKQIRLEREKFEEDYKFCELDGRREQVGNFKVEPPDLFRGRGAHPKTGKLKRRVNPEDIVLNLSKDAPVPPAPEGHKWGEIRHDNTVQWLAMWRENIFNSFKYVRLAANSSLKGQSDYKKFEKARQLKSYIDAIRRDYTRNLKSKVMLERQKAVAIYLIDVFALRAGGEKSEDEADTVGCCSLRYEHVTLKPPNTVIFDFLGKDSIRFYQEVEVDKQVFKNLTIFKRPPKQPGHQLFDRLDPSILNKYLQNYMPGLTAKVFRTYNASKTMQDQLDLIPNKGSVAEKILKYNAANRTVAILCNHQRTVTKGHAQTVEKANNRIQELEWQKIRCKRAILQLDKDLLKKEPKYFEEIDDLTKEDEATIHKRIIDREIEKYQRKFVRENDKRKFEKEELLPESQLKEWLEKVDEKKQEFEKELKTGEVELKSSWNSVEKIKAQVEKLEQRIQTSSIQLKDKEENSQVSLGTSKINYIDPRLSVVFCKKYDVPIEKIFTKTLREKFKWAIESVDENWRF
From the text: The strains are derived from the A364a genetic background, with the exception of BY4705, which is derived from the S288C background. Gene disruptions were generated by PCR fragment directed replacement (Baudin, et al., Nucleic Acids Research 21: 3329–30 (1993), Guldener, et al., Nucleic Acids Research 24: 2519–24 (1996)). Yeast overexpressing topoisomerase II was constructed by a PCR fragment directed promoter replacement of the topoisomerase II promoter with the yeast GPD promoter flanked upstream by the URA3 marker. All strains (except BY4705) bear the pleitropic drug sensitizing mutations erg6, pdr1, and pdr3 (Balzi, et al., Journal of Bioenergetics & Biomembranes 27: 71–6 (1995), Delaveau, et al, Molecular & General Genetics 244: 501–11 (1994), Gaber, et al., Molecular & Cellular Biology 9: 3447–56 (1989), Saunders, et al., Canadian Journal of Genetics & Cytology, 24: 493–503 (1982). Subik, et al, Current Genetics 10: 665–70 (1986)). The haploid yeast strain BY4705 (Brachmann, et al., Yeast 14: 115–32 (1998)) was used in the experiments described in FIG. 5. Plasmids expressing yeast or human topoisomerase I genes under the GAL promoter (Knab, et al., Journal of Biological Chemistry 268: 22322–30 (1993). Knab, et al., Journal of Biological Chemistry 270: 6141–8 (1995)) were transformed into BY4705 using standard procedures.
Yeast toxicity assays were performed essentially as follows: Exponentially growing cultures of the appropriate strains were diluted in synthetic complete media to a concentration of 7.4×10^4 cells/mL, and aliquots (135 μL) were transferred to each well of clear flat-bottomed 96 well plates. Compounds were added in duplicate or triplicate as 15 μL of the appropriate dilution in 5% DMSO. A 15 μL portion of 5% DMSO was added to control wells. […] Cell growth (OD660) in treated wells was plotted as a percentage of the growth in at least four averaged solvent control wells for the same strain. Camptothecin sodium salt (camptothecin Na) was the agent used in all yeast assays as standard.
In this regard, the sensitivity of yeast strains overexpressing either human or yeast topoisomerase I genes (hTOP1 or yTOP1, respectively) under the control of the inducible GAL promoter (see, for example, Knab, et al., Journal of Biological Chemistry 268: 22322–30 (1993); and Knab, et al., Journal of Biological Chemistry 270: 6141–8 (1995)) were used. Additionally, the sensitivity of yeast overexpressing the Topo I-VAC mutant enzyme, containing two amino acid substitutions (htop1-vac and ytop1-vac) that render topoisomerase I insensitive to the action of camptothecin were also examined (see, for example, Knab, et al., Journal of Biological Chemistry 268: 22322–30 (1993); and Knab, et al., Journal of Biological Chemistry 270: 6141–8 (1995)).

Rat1a fibroblasts = test: Effect of co-treatment with hydroxyurea (HU) on toxicity in Rat1a fibroblasts; format: cell-based, rat; details: six-hour exposure; 0, 0.25, 0.5 or 1 mM HU
Procedure: FIG. 6 illustrates the effect of exposure time and hydroxyurea on the toxicity of compound Ia and compound IIa. […] Rat1a fibroblasts were exposed to compound during growth for either four or six hours, the media was changed, then cells were grown for an appropriate period such that total incubation time was 96 hours, and processed as described in the Example below. […] The bar graph insets for each graph show growth inhibition by HU alone.
Cells were plated at a density of 500 cells per well in opaque 96 well plates (Packard) in a volume of 135 μL per well of the appropriate media. The plates were incubated overnight to allow cell adherence. Seven two-fold dilutions of the test compounds were added in a volume of 15 μL per well in triplicate, and 15 μL of media containing an appropriate concentration of DMSO was added to control wells in triplicate. Plates were incubated at 37° C. for 96 hours. The media was then replaced with 100 μL per well of the appropriate media containing 2 μCi/mL of (methyl-^3H) thymidine (Amersham Pharmacia Biotech), then plates were incubated for a further 24 hours at 37° C. Cells were washed three times with PBS, then 100 μL per well of scintillant was added (Microscint 20, Packard), and sealed plates were counted in a microplate reader (Packard Topcount). For suspension chicken cells, (methyl-^3H) thymidine was added directly to the drug-containing media at a concentration of 20 μCi/mL (comprising one tenth of the media volume) and incubated overnight. The suspension cells were transferred to a UniFilter GF/C plate (Packard) and washed with PBS in a plate washer (Packard). After drying, 25 μL per well of scintillant (Microscint 20, Packard) was added, and sealed plates were counted. Toxicity is expressed as a percentage of the control counts. For experiments involving shorter exposures to compounds, cells were grown in the presence of compound for the appropriate time, then the media was replaced with fresh drug-free media, and incubation continued for the remainder of 96 hours, followed by the normal tritiated thymidine uptake and washing protocol.
A six-hour exposure was used to test whether the toxicity of the same set of compounds is dependent on ongoing DNA synthesis. […] Thus, in contrast to camptothecin and topotecan, compounds Ia and IIa show no marked time dependency for toxicity (FIG. 6A) and are not inhibited by HU (FIG. 6B), indicating critical mechanistic differences between these compounds and camptothecin.

| SMILES | effect of yTOP1 overexpression on toxicity (yeast Topo I) | change of toxicity caused by HU co-treatment (Rat1a fibroblasts) | inhibition of toxicity by co-treatment with HU (Rat1a fibroblasts) |
| --- | --- | --- | --- |
| O=c1c(Cl)c(Cl)cnn1CCCl [compound IIa] | accentuates the toxicity | slight accentuation of toxicity | not inhibited by co-treatment with HU |
| O=C(CCl)Nc1ccc(C(=O)N/N=C/c2ccc(Cl)cc2)cc1 [compound Ia] | Little or no accentuation | slight accentuation of toxicity | not inhibited by co-treatment with HU |
